{
  "source": "patent US4228239A",
  "about": "(priority 1977, dated 1980)",
  "key": {"Pellicularia sasakii": {"tested_on": "Pellicularia sasakii", "experiment": "Activity against microorganisms", "assay_type": "cell-based"}, "Fusicladium levieri": {"tested_on": "Fusicladium levieri", "experiment": "Activity against microorganisms", "assay_type": "cell-based"}, "Talaromyces avellaneus": {"tested_on": "Talaromyces avellaneus", "experiment": "Growth inhibition of a fungus on an agar plate", "assay_type": "cell-based", "details": "Hamigera avellanea, pH 7.0, read-out: minimal inhibitory concentration", "protocol": "On the other hand, the growth of a fungus, Talaromyces avellaneus is inhibited by P-3 on an agar plate consisting of 3.5 g disodium hydrogen phosphate, 0.5 g monopotassium dihydrogen phosphate, 5 g yeast extract (Difco), 10 g glucose, 15 g agar, 1000 ml distilled water, pH 7.0. The minimal inhibitory concentration was 3 μg/ml for P-3."}, "[1]": {"tested_on": "Helminthosporium sigmoidium var irregulare", "experiment": "Activity against microorganisms", "assay_type": "cell-based"}, "Rhodotorula rubra": {"tested_on": "Rhodotorula rubra", "experiment": "Activity against microorganisms", "assay_type": "cell-based"}, "Cochlioborus miyabeanus": {"tested_on": "Cochlioborus miyabeanus", "experiment": "Activity against microorganisms", "assay_type": "cell-based"}, "[2]": {"experiment": "Preliminary acute toxicity test with mice", "details": "mouse, in vivo, ip, intraperitoneal injection"}, "Sclerotinia screrotiorum": {"tested_on": "Sclerotinia screrotiorum", "experiment": "Activity against microorganisms", "assay_type": "cell-based"}, "Trichophyton rubrum": {"tested_on": "Trichophyton rubrum", "experiment": "Activity against microorganisms", "assay_type": "cell-based"}, "P388 leukemia": {"tested_on": "P388 leukemia", "experiment": "Antitumour activity upon P388 leukemia in mice", "assay_type": "in vivo, mouse", "details": "0.00625 mg/kg/day, intraperitoneal, 9 consecutive days; 1×10^6 cells/animal i.p. transplanted", "description": "The therapeutic effects of P-3 (dosed intraperito-nearly for 9 consecutive days) upon P388 leukemia in mice (1×10^6 cells/animal, mouse, intra-peritoneally transplanted) was investigated."}, "Serratia marcescens": {"tested_on": "Serratia marcescens", "experiment": "Antimicrobial activity, paper disc method", "assay_type": "cell-based", "details": "paper disc 8 mm, 0.02 ml of a 300 μg/ml solution, trypticase-soy agar", "protocol": "(§1) With trypticase-soy agar (BBL) as an assay medium, the inhibitory concentrations against the microorganisms described below were investigated by the paper disc method. Filter-paper discs (Toyo Seisakusho, thin-type, 8 mm in dia.) each impregnated with 0.02 ml of a 300 μg/ml solution of P-3 were placed on agar plates respectively inoculated with the microorganisms described below. P-3 had no activity against the following bacteria: Escherichia coli, Proteus vulgaris, Proteus mirabilis, Pseudomonas aeruginosa, Staphylococcus aureus, Bacillus subtilis, Bacillus cereus, Klebsiella pneumoniae, Serratia marcescens, and Mycobacterium avium."}, "Klebsiella pneumoniae": {"tested_on": "Klebsiella pneumoniae", "experiment": "Antimicrobial activity, paper disc method", "assay_type": "cell-based", "details": "paper disc 8 mm, 0.02 ml of a 300 μg/ml solution, trypticase-soy agar", "protocol": "as §1"}, "Staphylococcus aureus": {"tested_on": "Staphylococcus aureus", "experiment": "Antimicrobial activity, paper disc method", "assay_type": "cell-based", "details": "paper disc 8 mm, 0.02 ml of a 300 μg/ml solution, trypticase-soy agar", "protocol": "as §1"}, "Proteus vulgaris": {"tested_on": "Proteus vulgaris", "experiment": "Antimicrobial activity, paper disc method", "assay_type": "cell-based", "details": "paper disc 8 mm, 0.02 ml of a 300 μg/ml solution, trypticase-soy agar", "protocol": "as §1"}, "Pseudomonas aeruginosa": {"tested_on": "Pseudomonas aeruginosa", "experiment": "Antimicrobial activity, paper disc method", "assay_type": "cell-based", "details": "paper disc 8 mm, 0.02 ml of a 300 μg/ml solution, trypticase-soy agar", "protocol": "as §1"}, "Bacillus subtilis": {"tested_on": "Bacillus subtilis", "experiment": "Antimicrobial activity, paper disc method", "assay_type": "cell-based", "details": "paper disc 8 mm, 0.02 ml of a 300 μg/ml solution, trypticase-soy agar", "protocol": "as §1"}, "Mycobacterium avium": {"tested_on": "Mycobacterium avium", "experiment": "Antimicrobial activity, paper disc method", "assay_type": "cell-based", "details": "paper disc 8 mm, 0.02 ml of a 300 μg/ml solution, trypticase-soy agar", "protocol": "as §1"}, "Bacillus cereus": {"tested_on": "Bacillus cereus", "experiment": "Antimicrobial activity, paper disc method", "assay_type": "cell-based", "details": "paper disc 8 mm, 0.02 ml of a 300 μg/ml solution, trypticase-soy agar", "protocol": "as §1"}, "Escherichia coli": {"tested_on": "Escherichia coli", "experiment": "Antimicrobial activity, paper disc method", "assay_type": "cell-based", "details": "paper disc 8 mm, 0.02 ml of a 300 μg/ml solution, trypticase-soy agar", "protocol": "as §1"}, "Proteus mirabilis": {"tested_on": "Proteus mirabilis", "experiment": "Antimicrobial activity, paper disc method", "assay_type": "cell-based", "details": "paper disc 8 mm, 0.02 ml of a 300 μg/ml solution, trypticase-soy agar", "protocol": "as §1"}, "Cryptococcus neoformans": {"tested_on": "Cryptococcus neoformans", "experiment": "Activity against microorganisms", "assay_type": "cell-based"}, "Pyricularia oryzae": {"tested_on": "Pyricularia oryzae", "assay_type": "cell-based"}, "Solubility": {"experiment": "Solubility", "assay_type": "physicochemical"}},
  "data": [
    {"smiles": "COc1cc2cc(c1Cl)N(C)C(=O)CC(OC(=O)C(C)C)C1(C)OC1C(C)C1CC(O)(NC(=O)O1)C(OC)C=CC=C(C)C2", "note": "(centres unmarked) [P-3]", "values": [
      {"measurement": "activity against Pellicularia sasakii", "setting": "Pellicularia sasakii", "result": "had the activity"},
      {"measurement": "activity against Fusicladium levieri", "setting": "Fusicladium levieri", "result": "had the activity"},
      {"measurement": "MIC", "setting": "Talaromyces avellaneus", "result": 3, "unit": "µg/mL"},
      {"measurement": "activity against Helminthosporium sigmoidium var irregulare", "setting": "[1]", "result": "had the activity"},
      {"measurement": "activity against Rhodotorula rubra", "setting": "Rhodotorula rubra", "result": "had the activity"},
      {"measurement": "activity against Cochlioborus miyabeanus", "setting": "Cochlioborus miyabeanus", "result": "had the activity"},
      {"measurement": "LD50", "setting": "[2]", "result": "> 0.313", "unit": "mg/kg"},
      {"measurement": "activity against Sclerotinia screrotiorum", "setting": "Sclerotinia screrotiorum", "result": "had the activity"},
      {"measurement": "activity against Trichophyton rubrum", "setting": "Trichophyton rubrum", "result": "had the activity"},
      {"measurement": "life-span-extending ratio", "setting": "P388 leukemia", "result": 168, "unit": "%"},
      {"measurement": "activity against bacteria (Serratia marcescens)", "setting": "Serratia marcescens", "result": "no activity"},
      {"measurement": "activity against bacteria (Klebsiella pneumoniae)", "setting": "Klebsiella pneumoniae", "result": "no activity"},
      {"measurement": "activity against bacteria (Staphylococcus aureus)", "setting": "Staphylococcus aureus", "result": "no activity"},
      {"measurement": "activity against bacteria (Proteus vulgaris)", "setting": "Proteus vulgaris", "result": "no activity"},
      {"measurement": "activity against bacteria (Pseudomonas aeruginosa)", "setting": "Pseudomonas aeruginosa", "result": "no activity"},
      {"measurement": "activity against bacteria (Bacillus subtilis)", "setting": "Bacillus subtilis", "result": "no activity"},
      {"measurement": "activity against bacteria (Mycobacterium avium)", "setting": "Mycobacterium avium", "result": "no activity"},
      {"measurement": "activity against bacteria (Bacillus cereus)", "setting": "Bacillus cereus", "result": "no activity"},
      {"measurement": "activity against bacteria (Escherichia coli)", "setting": "Escherichia coli", "result": "no activity"},
      {"measurement": "activity against bacteria (Proteus mirabilis)", "setting": "Proteus mirabilis", "result": "no activity"},
      {"measurement": "activity against Cryptococcus neoformans", "setting": "Cryptococcus neoformans", "result": "had the activity"},
      {"measurement": "activity against Pyricularia oryzae", "setting": "Pyricularia oryzae", "result": "had the activity"},
      {"measurement": "Solubility", "setting": "Solubility; acetone", "result": "Soluble"},
      {"measurement": "Solubility", "setting": "Solubility; benzene", "result": "Sparingly soluble"},
      {"measurement": "Solubility", "setting": "Solubility; chloroform", "result": "Soluble"},
      {"measurement": "Solubility", "setting": "Solubility; dimethylsulfoxide", "result": "Soluble"},
      {"measurement": "Solubility", "setting": "Solubility; ethanol", "result": "Soluble"},
      {"measurement": "Solubility", "setting": "Solubility; ether", "result": "Sparingly soluble"},
      {"measurement": "Solubility", "setting": "Solubility; ethyl acetate", "result": "Soluble"},
      {"measurement": "Solubility", "setting": "Solubility; hexane", "result": "Insoluble"},
      {"measurement": "Solubility", "setting": "Solubility; methanol", "result": "Soluble"},
      {"measurement": "Solubility", "setting": "Solubility; petr.ether", "result": "Insoluble"},
      {"measurement": "Solubility", "setting": "Solubility; pyridine", "result": "Soluble"},
      {"measurement": "Solubility", "setting": "Solubility; tetrahydrofuran", "result": "Soluble"},
      {"measurement": "Solubility", "setting": "Solubility; water", "result": "Insoluble"}
    ]}
  ]
}
